In the oligonucleotide strings, read from the 5' end, every base follows the letter of its sugar. An asterisk marks phosphorothioate; unmarked linkages are phosphodiester. Other units and linkages are bracketed, terminal groups are in braces. A string of capitals states the bases alone. e = 2'-O-(2-methoxyethyl) (MOE); [5mC] = 5-methylcytosine; d = 2'-deoxy (DNA)

Holding throughout (type): cell-based
Data set [1] deals with human Factor 7 mRNA. Kind of data set: Antisense inhibition of human Factor 7 mRNA in HepB3 cells, lipofectin, 50 nM, real-time RT-PCR. To be noted: HepB3 cells. A digest of the protocol: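 After transfection of wells containing 4,000 cells, treatment ran for approximately 24 h. RIBOGREEN®-measured total RNA served for normalisation, and inhibition was calculated as a percentage of untreated control.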
In general terms: Real-time PCR tracks product formation cycle by cycle.

Data set [2] has as its system human Factor 7 mRNA. Kind of data set: Dose-dependent antisense inhibition of human Factor 7 in HepB3 cells, transfection with electroporation. The protocol: (§1) The gapmers were also transfected via electroporation and their dose-dependent inhibition of human Factor 7 mRNA was measured. Cells were plated at a density of 20,000 cells per well and transfected via electroporation with 3.125 μM, 6.25 μM, 12.5 μM, 25 μM, 50 μM, and 100 μM concentrations of antisense oligonucleotide, as specified in Table 15. After a treatment period of approximately 16 hours, RNA was isolated from the cells and Factor 7 mRNA levels were measured by quantitative real-time PCR. Human Factor 7 primer probe set RTS 2927 was used to measure mRNA levels. Factor 7 mRNA levels were adjusted according to total RNA content, as measured by RIBOGREEN®. Results are presented as percent inhibition of Factor 7, relative to untreated control cells.
as §1, with “Cells were” for “The gapmers were also transfected via electroporation and their dose-dependent inhibition of human Factor 7 mRNA was measured. Cells were”, “in Table 16. After a” for “in Table 15. After a”, “cells and human Factor 7” for “cells and Factor 7”

The subject of data set [3] is human Factor 7 mRNA. Put plainly: Dose-dependent antisense inhibition of human Factor 7 in HepB3 cells, transfection with lipofectin. Particulars: lipofectin, HepB3 cells, 16 hours. The gist of the method:
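HepB3 cells (4,000/well) lipofectin-transfected with antisense oligonucleotide at 3.125 or 6.25 up to 100 nM for ~16 h. Factor 7 mRNA measured by real-time RT-PCR with primer probe set RTS 2927, adjusted to RIBOGREEN total RNA; expressed as percent inhibition versus untreated control cells.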

[4] abbreviates: gapmers targeted to nucleobases 15188 to 15211 of SEQ ID NO: 1 (Table 13).
[5] abbreviates: 3.125 μM, 16 hours (Example 7, Table 15).
Where [6] appears, read: 3.125 μM, 16 hours (Example 8, Table 16).
The mark [7] stands for this setting: 6.25 μM, 16 hours (Example 7, Table 15).
Setting [8] is: 6.25 μM, 16 hours (Example 8, Table 16).
The mark [9] stands for this setting: 12.5 μM, 16 hours (Example 7, Table 15).
The mark [10] stands for this setting: 12.5 μM, 16 hours (Example 8, Table 16).
Setting [11] is: 25 μM, 16 hours (Example 7, Table 15).
Setting [12] is: 25 μM, 16 hours (Example 8, Table 16).
[13] abbreviates: 50 μM, 16 hours (Example 7, Table 15).
[14] abbreviates: 50 μM, 16 hours (Example 8, Table 16).
Where [15] appears, read: 100 μM, 16 hours (Example 7, Table 15).
Where [16] appears, read: 100 μM, 16 hours (Example 8, Table 16).

Regarding “422150 (antisense eG*e[5mC]*eA*dT*dG*dG*dT*dG*dA*dT*dG*d[5mC]*dT*dT*d[5mC]*dT*dG*eA*eA*eT) [compound 422150]”, in data set [1] (setting [4]), the “% Inhibition of human Factor 7 mRNA levels” value (“% Inhibition” below) worked out at 74%. In addition, the “percent inhibition of Factor 7 mRNA, relative to untreated control cells” value worked out at 17% in data set [2] (setting [5]); 0% in data set [2] (setting [6]); 20% in data set [2] (setting [7]); 31% in data set [2] (setting [8]); 40% in data set [2] (setting [9]); 53% in data set [2] (setting [10]). In addition, the “percent inhibition of Factor 7 mRNA, relative to untreated control cells” value in data set [2] (setting [11]) amounted to 54%; in data set [2] (setting [12]), 67%; in data set [2] (setting [13]), 68%; in data set [2] (setting [14]) it was 77%; in data set [2] (setting [15]), 83%; in data set [2] (setting [16]) it was 86%. The “percent inhibition of Factor 7 mRNA, relative to untreated control cells” value in data set [3] (3.125 nM) is 9%; in data set [3] (12.5 nM), 38%; in data set [3] (25 nM) it was 59%; in data set [3] (50 nM), 79%; in data set [3] (100 nM), 87%; in data set [3], 23%.
Take “422130 (antisense eG*e[5mC]*e[5mC]*eT*eG*dA*dG*dG*d[5mC]*d[5mC]*dA*dG*d[5mC]*dA*dG*eA*eT*e[5mC]*eA*e[5mC]) [compound 422130]”: the “% Inhibition” value in data set [1] (gapmers targeted to nucleobases 14707 to 14732 of SEQ ID NO: 1 (Table 11)) amounted to 79%. The “percent inhibition of Factor 7 mRNA, relative to untreated control cells” value was 28% in data set [2] (setting [5]); 14% in data set [2] (setting [6]); 29% in data set [2] (setting [7]); 24% in data set [2] (setting [8]); 59% in data set [2] (setting [9]); 61% in data set [2] (setting [10]). For the same substance, the “percent inhibition of Factor 7 mRNA, relative to untreated control cells” value in data set [2] (setting [11]) is 61%; in data set [2] (setting [12]) it was 68%; in data set [2] (setting [13]) it was 73%; in data set [2] (setting [14]), 82%; in data set [2] (setting [15]) it was 86%; in data set [2] (setting [16]) it was 88%. Moreover, the “percent inhibition of Factor 7 mRNA, relative to untreated control cells” value in data set [3] (3.125 nM) is on record as 4%; in data set [3] (12.5 nM) it was 34%; in data set [3] (25 nM), 59%; in data set [3] (50 nM) it was 77%; in data set [3] (100 nM), 85%; in data set [3] it was 15%.
“422177 (antisense e[5mC]*e[5mC]*e[5mC]*dG*d[5mC]*d[5mC]*dG*dG*d[5mC]*dT*d[5mC]*dT*dG*d[5mC]*dT*d[5mC]*dA*eT*e[5mC]*e[5mC]) [compound 422177]”: in data set [1] (gapmers targeted to nucleobases 13760 to 13789 of SEQ ID NO: 1 (Table 10)), the “% Inhibition” value was found to be 74%. Also, the “percent inhibition of Factor 7 mRNA, relative to untreated control cells” value in data set [2] (setting [5]) is 3%; in data set [2] (setting [7]) it was 10%; in data set [2] (setting [9]), 29%; in data set [2] (setting [11]), 21%; in data set [2] (setting [13]), 31%; in data set [2] (setting [15]), 63%. The “percent inhibition of Factor 7 mRNA, relative to untreated control cells” value in data set [3] (3.125 nM) is 12%; in data set [3] (12.5 nM), 44%; in data set [3] (25 nM) it was 64%; in data set [3] (50 nM), 81%; in data set [3] (100 nM) it was 88%; in data set [3] it was 24%.
As to “422295 (antisense e[5mC]*eG*dA*dG*dT*dT*d[5mC]*dT*dG*d[5mC]*dA*dG*dG*dA*dG*e[5mC]*eG*eG*e[5mC]*e[5mC]) [compound 422295]”, the “% Inhibition” value in data set [1] (gapmers (5-10-5, 3-14-3, 2-13-5 MOE) targeted to nucleobases 4868 to 4899 of SEQ ID NO: 1) is 74%. Further, the “percent inhibition of Factor 7 mRNA, relative to untreated control cells” value in data set [2] (setting [5]) came out at 10%; in data set [2] (setting [7]), 8%; in data set [2] (setting [9]) it was 37%; in data set [2] (setting [11]), 58%; in data set [2] (setting [13]) it was 68%; in data set [2] (setting [15]), 80%. Also, the “percent inhibition of Factor 7 mRNA, relative to untreated control cells” value was found to be 17% in data set [3] (3.125 nM); 44% in data set [3] (12.5 nM); 64% in data set [3] (25 nM); 80% in data set [3] (50 nM); 85% in data set [3] (100 nM); 22% in data set [3].
As to “422228 (antisense eT*eG*d[5mC]*dA*dT*dG*dG*dT*dG*dA*dT*dG*d[5mC]*dT*dT*e[5mC]*eT*eG*eA*eA) [compound 422228]”, the “% Inhibition” value in data set [1] (setting [4]) is given as 73%. Besides, the “percent inhibition of Factor 7 mRNA, relative to untreated control cells” value in data set [2] (setting [5]) is recorded as 18%; in data set [2] (setting [7]) it was 33%; in data set [2] (setting [9]), 40%; in data set [2] (setting [11]), 47%; in data set [2] (setting [13]), 71%; in data set [2] (setting [15]) it was 83%. Moreover, the “percent inhibition of Factor 7 mRNA, relative to untreated control cells” value in data set [3] (3.125 nM) is 17%; in data set [3] (12.5 nM) it was 43%; in data set [3] (25 nM), 60%; in data set [3] (50 nM), 78%; in data set [3] (100 nM), 90%; in data set [3], 25%.
With “422087 (antisense e[5mC]*eA*eT*eG*e[5mC]*dA*dT*dG*dG*dT*dG*dA*dT*dG*d[5mC]*eT*eT*e[5mC]*eT*eG) [compound 422087]”, in data set [1] (setting [4]), the “% Inhibition” value worked out at 83%. Also, the “percent inhibition of Factor 7 mRNA, relative to untreated control cells” value in data set [2] (setting [5]) came to 22%; in data set [2] (setting [6]) it was 19%; in data set [2] (setting [7]), 26%; in data set [2] (setting [8]), 38%; in data set [2] (setting [9]), 48%; in data set [2] (setting [10]), 66%. In addition, the “percent inhibition of Factor 7 mRNA, relative to untreated control cells” value in data set [2] (setting [11]) stood at 57%; in data set [2] (setting [12]), 75%; in data set [2] (setting [13]), 72%; in data set [2] (setting [14]) it was 80%; in data set [2] (setting [15]) it was 80%; in data set [2] (setting [16]), 87%. Besides, the “percent inhibition of Factor 7 mRNA, relative to untreated control cells” value was determined as 14% in data set [3] (3.125 nM); 51% in data set [3] (12.5 nM); 73% in data set [3] (25 nM); 83% in data set [3] (50 nM); 90% in data set [3] (100 nM); 24% in data set [3].

(Values after patent publication US20120214862A1, “MODULATION OF FACTOR 7 EXPRESSION” (ISIS Pharmaceuticals, Inc., priority 2009, published 2012).)
